Key:
Test in all cases: selective drug sensitivity score (sDSS, relative to normal bone marrow) (sDSS (score)); higher = more potent and effective on the cell line relative to normal bone marrow cells
Settings in all cases: 72 h
[1] = tested on: JURKAT
[2] = tested on: MOLT-4
[3] = tested on: TMD5
[4] = tested on: MHH-CALL-3
[5] = tested on: P12-ICHIKAWA
[6] = tested on: ALL-PO
[7] = tested on: SEM cells
[8] = tested on: MN-60
[9] = tested on: KARPAS-45
[10] = tested on: COG-LL-317
[11] = tested on: LC4-1
[12] = tested on: TANOUE
[13] = tested on: COG-LL-332h
[14] = tested on: CCRF-HSB2
[15] = tested on: COG-LL-319h
[16] = tested on: SUP-B15
[17] = tested on: PEER
[18] = tested on: HAL-01
[19] = tested on: NALL-1
[20] = tested on: P30-OHKUBO
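Further: ALL cell lines in 384-well plates, five doses spanning 10,000-fold, each plate scaled between vehicle and 100 µmol/L benzalkonium chloride controls, sDSS an adapted area-under-curve metric.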

SMILES | selective drug sensitivity score [1] | selective drug sensitivity score [2] | selective drug sensitivity score [3] | selective drug sensitivity score [4] | selective drug sensitivity score [5] | selective drug sensitivity score [6] | selective drug sensitivity score [7] | selective drug sensitivity score [8] | selective drug sensitivity score [9] | selective drug sensitivity score [10] | selective drug sensitivity score [11] | selective drug sensitivity score [12] | selective drug sensitivity score [13] | selective drug sensitivity score [14] | selective drug sensitivity score [15] | selective drug sensitivity score [16] | selective drug sensitivity score [17] | selective drug sensitivity score [18] | selective drug sensitivity score [19] | selective drug sensitivity score [20]
CCS(=O)(=O)N1CC(CC#N)(n2cc(-c3ncnc4[nH]ccc34)cn2)C1 [Baricitinib] (top concentration 2500 nM) | -1.94 | -1.94 | -1.94 | -1.94 | -1.94 | -1.94 | -1.94 | -1.94 | -1.94 | -1.94 | -1.94 | -1.94 | 0.16 | -1.94 | -1.94 | -1.94 | 0.96 | -1.94 | -1.94 | -1.94
CC(O)(CS(=O)(=O)c1ccc(F)cc1)C(=O)Nc1ccc(C#N)c(C(F)(F)F)c1 (stereo not given) [Bicalutamide] (top concentration 10000 nM) | 0.42 | 2.32 | -0.88 | -1.68 | -0.88 | 3.92 | -1.68 | 1.42 | -0.88 | 0.52 | -1.68 | -1.28 | 0.72 | -1.28 | 3.72 | 4.62 | -0.18 | -1.68 | -1.68 | -1.68
COc1cc(Nc2c(C#N)cnc3cc(OCCCN4CCN(C)CC4)c(OC)cc23)c(Cl)cc1Cl [Bosutinib] (top concentration 10000 nM) | -0.74 | -0.64 | 9.06 | 8.06 | 0.96 | 0.36 | 1.96 | -3.24 | 2.46 | -2.64 | 0.96 | -7.74 | 6.56 | 27 | 1.66 | 16 | 9.16 | -0.54 | -0.94 | 3.56
Cc1cc2c(F)c(Oc3ncnn4cc(OC[C@@H](C)O)c(C)c34)ccc2[nH]1 [Brivanib] (top concentration 1000 nM) | 1.46 | -0.04 | -0.04 | -0.04 | 1.56 | -0.04 | -0.04 | 2.76 | 0.06 | -0.04 | -0.04 | -0.04 | 0.16 | -0.04 | -0.04 | -0.04 | -0.04 | -0.04 | -0.04 | -0.04
Cc1ccc(-c2cc(C(F)(F)F)nn2-c2ccc(S(N)(=O)=O)cc2)cc1 [Celecoxib] (top concentration 10000 nM) | 0.14 | 0.14 | 1.34 | 5.24 | 0.24 | 2.84 | -0.06 | -0.06 | 0.34 | -0.06 | 1.24 | -0.06 | 0.34 | -0.06 | 0.04 | 2.44 | 0.94 | 0.04 | -0.06 | -0.06
N.N.[Cl][Pt][Cl] [Cisplatin] (top concentration 100000 nM) | 13.1 | 16.2 | 1.24 | 4.04 | 12.7 | 8.44 | 12.2 | -0.56 | 5.84 | 23.2 | 17.7 | -3.16 | 19.4 | 21 | 19.4 | 17.4 | 2.64 | 12 | 6.84 | 16.7
Cc1c2oc3c(C)ccc(C(=O)N[C@@H]4C(=O)N[C@H](C(C)C)C(=O)N5CCC[C@H]5C(=O)N(C)CC(=O)N(C)[C@@H](C(C)C)C(=O)O[C@@H]4C)c3nc-2c(C(=O)N[C@@H]2C(=O)N[C@H](C(C)C)C(=O)N3CCC[C@H]3C(=O)N(C)CC(=O)N(C)[C@@H](C(C)C)C(=O)O[C@@H]2C)c(N)c1=O [Dactinomycin] (top concentration 1000 nM) | 2.64 | 17.3 | 7.84 | 15.7 | 0.44 | 8.24 | 11.3 | 8.94 | 8.44 | 20.7 | 17.5 | -11.2 | 14.5 | 15.7 | 5.94 | 20.7 | 0.64 | 1.04 | 1.44 | 19.1
O=C(O)CCCCC(CCSCc1ccccc1)SCc1ccccc1 (stereo not given) [Devimistat (CPI-613)] (top concentration 10000 nM) | 0 | 0 | 0 | 1 | 0 | 0 | 0.6 | 0.1 | 0 | 0 | 2.1 | 1.8 | 0 | 0.3 | 1.3 | 0 | 0.1 | 0 | 0.1 | 0
CC(=O)O[C@@]12CO[C@@H]1C[C@H](O)[C@@]1(C)C(=O)[C@H](O)C3=C(C)[C@@H](OC(=O)[C@H](O)[C@@H](NC(=O)OC(C)(C)C)c4ccccc4)C[C@@](O)([C@@H](OC(=O)c4ccccc4)[C@H]21)C3(C)C [Docetaxel] (top concentration 1000 nM) | 17.1 | 14.8 | 8.5 | 7.3 | 19.1 | 15.5 | 19.5 | -1 | 17.1 | 20.6 | 22.9 | -11.8 | 22.2 | 19.3 | 21.2 | 21.7 | 22.3 | 4.9 | 15.9 | 20.4
Cc1ccc(-n2nc(C(C)(C)C)cc2NC(=O)Nc2ccc(OCCN3CCOCC3)c3ccccc23)cc1 [Doramapimod] (top concentration 10000 nM) | 1.16 | 2.46 | -0.14 | -0.24 | 0.26 | 4.16 | 1.06 | 0.66 | -0.24 | 10.9 | 1.76 | 1.16 | 4.36 | 2.76 | 1.06 | 5.16 | 1.86 | -0.24 | -0.24 | 4.26
Cc1ccc(NS(=O)(=O)c2cccc(C#N)c2)c2[nH]cc(C#N)c12 [E7820] (top concentration 50000 nM) | 21.7 | 1.82 | 7.32 | 7.82 | 15.4 | 4.92 | 19.5 | -1.88 | 20.1 | 21.9 | 11.8 | -6.28 | 22.1 | 18 | 18 | 8.72 | 17.8 | 12.3 | 6.42 | 17.3
C[C@@H]1CN(C(=O)c2ccc(NC(=O)c3cc(O[C@H](C)c4c(Cl)ccc(F)c4Cl)c(N)nn3)cc2)C[C@H](C)N1 [Ensartinib] (top concentration 1000 nM) | -2.54 | -0.54 | -1.84 | -2.84 | -2.54 | 0.26 | -0.34 | -2.84 | 2.36 | -2.34 | -1.44 | -2.84 | 2.76 | -0.64 | -2.64 | 3.86 | 1.96 | -2.84 | -2.84 | 2.06
c1cn2cc(-c3ccc4cn[nH]c4c3)nc(Nc3ccc(N4CCOCC4)cc3)c2n1 [Entospletinib] (top concentration 5000 nM) | -0.64 | -0.64 | -0.64 | -0.64 | -0.64 | 7.26 | 4.56 | -0.64 | -0.64 | -0.64 | -0.64 | -0.64 | -0.64 | -0.64 | -0.64 | 1.36 | -0.64 | -0.64 | -0.64 | 6.96
COc1cc([C@@H]2c3cc4c(cc3[C@@H](O[C@@H]3O[C@@H]5CO[C@@H](C)O[C@H]5[C@H](O)[C@H]3O)[C@H]3COC(=O)[C@H]23)OCO4)cc(OC)c1O [Etoposide] (top concentration 10000 nM) | 14.2 | 23.5 | 5.24 | 19.7 | 18.9 | 5.44 | 15.5 | -0.86 | 7.24 | 29.8 | 14.8 | -6.26 | 22.7 | 26 | 23.2 | 26.8 | 6.84 | 5.14 | 14.9 | 16.3
CCCCCCCCc1ccc(CCC(N)(CO)CO)cc1 [Fingolimod] (top concentration 10000 nM) | -1.12 | 1.78 | 0.48 | -3.42 | -0.92 | 2.28 | 0.48 | 1.28 | -0.02 | 1.08 | 0.88 | 0.78 | 1.38 | 0.48 | 0.28 | 7.48 | 1.78 | 1.88 | 6.18 | 1.38
O=C(NOCCO)c1ccc2cncn2c1Nc1ccc(I)cc1F [GDC-0623] (top concentration 2500 nM) | -3.2 | -3.3 | -0.7 | 1.7 | -1.7 | -3.3 | -3.4 | -3.4 | -3.1 | -0.8 | -2.3 | -3.4 | -1.8 | 0.8 | -2.1 | -3 | -0.1 | 3.1 | -0.5 | -2.4
C[C@H]1CN(C2COC2)CCN1c1ccc(Nc2cc(-c3ccnc(N4CCn5c(cc6c5CC(C)(C)C6)C4=O)c3CO)cn(C)c2=O)nc1 [GDC-0853] (top concentration 1000 nM) | 0 | 0 | 0 | 0 | 0 | 0 | 0 | 0 | 0 | 0 | 0 | 0 | 0 | 0 | 2.8 | 0 | 0 | 0 | 0 | 0
